{"source": "patent US8318644B2", "about": "“Lubricating oil” (Idemitsu Kosan Co., Ltd., priority 2003, dated 2012)", "data": [{"test": "Density of ionic liquids", "type": "physicochemical", "conditions": "20° C.", "protocol": "Density and molecular weight (Mw) of Ionic liquids 1 to 4 were determined at 20° C., and each ion concentration was calculated from the relationship: [density of ionic liquid (g/cm^3)/molecular weight (MW) of ionic liquid (g/mol)]×1000.", "units": {"density": "g/mL"}, "values": [{"compound": "CCn1cc[n+](C)c1.F[B-](F)(F)F", "note": "[Ionic liquid 1, 1-Ethyl-3-methylimidazolium tetrafluoroborate]", "density": 1.283}, {"compound": "CCCCn1cc[n+](C)c1.F[B-](F)(F)F", "note": "[Ionic liquid 4, 1-Butyl-3-methylimidazolium tetrafluoroborate]", "density": 1.208}, {"compound": "Butylpyridinium bis(trifluoromethanesulfonyl)imide [Ionic liquid 2]", "density": 1.453}, {"compound": "N,N-diethyl-N-methyl(2-methoxyethyl)ammonium bis(trifluoromethanesulfonyl)imide [Ionic liquid 3]", "density": 1.420}]}]}
